Experimental data: ChEMBL document CHEMBL2021851, “Synthesis and SAR studies of imidazo-[1,2-a]-pyrazine Aurora kinase inhibitors with improved off-target kinase selectivity” (Bioorg Med Chem Lett, 2012)

How the values were obtained:
Aurora kinase A = target: T1, Aurora kinase A (Homo sapiens, UniProt O14965); experiment: Inhibition of aurora A kinase using 5TAMRA-GRTGRRNSICOOH as substrate by fluorescent assay
T1 sequence (O14965 whole entry): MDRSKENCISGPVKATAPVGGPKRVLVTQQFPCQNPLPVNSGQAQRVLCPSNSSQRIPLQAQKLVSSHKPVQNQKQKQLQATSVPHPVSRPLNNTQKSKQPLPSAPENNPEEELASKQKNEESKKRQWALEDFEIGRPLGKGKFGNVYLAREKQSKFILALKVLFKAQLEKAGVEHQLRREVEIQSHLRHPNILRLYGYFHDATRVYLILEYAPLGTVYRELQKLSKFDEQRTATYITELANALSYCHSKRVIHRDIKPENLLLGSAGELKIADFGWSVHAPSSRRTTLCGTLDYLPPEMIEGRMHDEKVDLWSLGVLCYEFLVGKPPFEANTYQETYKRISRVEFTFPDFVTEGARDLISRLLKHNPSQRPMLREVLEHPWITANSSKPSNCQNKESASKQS

Aurora kinase B [1] = target: T2, Aurora kinase B (Homo sapiens, UniProt Q96GD4); experiment: Inhibition of aurora B kinase using 5TAMRA-GRTGRRNSICOOH as substrate by fluorescent assay
Aurora kinase B [2] = target: T2, Aurora kinase B; experiment: Inhibition of aurora B kinase in human HCT116 cells assessed as inhibition of histone H3 phosphorylation incubated for 1 hr by Hoechst 33342 staining based microscopic analysis; type: cell-based, HCT-116
[3] = target: Tyrosine-protein kinase Lck (Homo sapiens, UniProt P06239); experiment: Inhibition of LCK
[4] = target: T3, Serine/threonine-protein kinase Chk1 (Homo sapiens, UniProt O14757); experiment: Inhibition of Chk1
T3 sequence (O14757 whole entry): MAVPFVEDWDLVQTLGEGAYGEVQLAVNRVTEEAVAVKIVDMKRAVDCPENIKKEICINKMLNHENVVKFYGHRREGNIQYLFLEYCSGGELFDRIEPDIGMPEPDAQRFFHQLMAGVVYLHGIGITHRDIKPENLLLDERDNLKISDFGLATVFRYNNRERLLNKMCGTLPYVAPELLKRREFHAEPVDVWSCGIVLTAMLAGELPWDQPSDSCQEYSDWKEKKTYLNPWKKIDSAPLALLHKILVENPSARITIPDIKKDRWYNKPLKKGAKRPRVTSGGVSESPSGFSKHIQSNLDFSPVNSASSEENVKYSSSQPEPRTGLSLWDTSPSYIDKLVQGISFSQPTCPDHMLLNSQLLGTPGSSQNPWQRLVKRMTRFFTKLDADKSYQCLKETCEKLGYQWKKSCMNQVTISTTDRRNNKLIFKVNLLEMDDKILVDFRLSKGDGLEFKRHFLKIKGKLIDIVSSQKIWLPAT

[5] = target: T4, Interleukin-1 receptor-associated kinase 4 (Homo sapiens, UniProt Q9NWZ3); experiment: Inhibition of IRAK4
T4 sequence (Q9NWZ3 whole entry): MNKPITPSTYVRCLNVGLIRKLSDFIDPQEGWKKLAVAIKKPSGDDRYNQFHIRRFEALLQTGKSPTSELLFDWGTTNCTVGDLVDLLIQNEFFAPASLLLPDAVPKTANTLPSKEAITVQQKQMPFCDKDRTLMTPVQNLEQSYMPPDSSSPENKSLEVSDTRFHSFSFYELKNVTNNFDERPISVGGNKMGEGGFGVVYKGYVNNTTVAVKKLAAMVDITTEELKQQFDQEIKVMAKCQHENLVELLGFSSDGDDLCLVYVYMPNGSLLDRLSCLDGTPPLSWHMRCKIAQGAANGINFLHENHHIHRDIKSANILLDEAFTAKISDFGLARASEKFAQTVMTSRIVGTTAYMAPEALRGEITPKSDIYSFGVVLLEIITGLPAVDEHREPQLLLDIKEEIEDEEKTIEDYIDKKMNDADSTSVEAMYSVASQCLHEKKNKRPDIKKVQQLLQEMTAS

[6] = target: Vascular endothelial growth factor receptor 2 (Homo sapiens, UniProt P35968); experiment: Inhibition of VEGFR2
[7] = target: Ribosomal protein S6 kinase alpha-3 (Homo sapiens, UniProt P51812); experiment: Inhibition of RSK2
Ribosomal protein S6 kinase alpha-3, sequence (P51812 whole entry): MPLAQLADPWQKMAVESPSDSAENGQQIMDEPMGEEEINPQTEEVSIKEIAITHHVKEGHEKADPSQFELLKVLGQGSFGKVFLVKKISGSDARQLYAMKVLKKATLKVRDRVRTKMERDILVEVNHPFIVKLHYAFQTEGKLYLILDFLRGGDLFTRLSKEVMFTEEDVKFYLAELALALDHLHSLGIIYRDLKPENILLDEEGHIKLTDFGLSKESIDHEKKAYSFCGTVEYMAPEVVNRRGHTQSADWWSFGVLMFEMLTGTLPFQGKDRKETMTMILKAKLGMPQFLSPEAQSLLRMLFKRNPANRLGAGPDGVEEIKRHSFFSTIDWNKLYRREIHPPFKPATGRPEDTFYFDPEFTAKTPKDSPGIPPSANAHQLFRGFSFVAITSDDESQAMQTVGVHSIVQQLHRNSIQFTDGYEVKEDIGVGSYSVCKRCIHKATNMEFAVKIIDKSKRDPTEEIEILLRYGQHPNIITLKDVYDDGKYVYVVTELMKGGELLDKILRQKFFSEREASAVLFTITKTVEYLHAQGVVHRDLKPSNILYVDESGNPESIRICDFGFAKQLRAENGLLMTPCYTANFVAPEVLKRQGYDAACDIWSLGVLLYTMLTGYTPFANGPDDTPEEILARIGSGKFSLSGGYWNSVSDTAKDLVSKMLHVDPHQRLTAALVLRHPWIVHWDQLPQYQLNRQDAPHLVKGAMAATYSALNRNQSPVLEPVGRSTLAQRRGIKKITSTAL

Vascular endothelial growth factor receptor 2, sequence (P35968 whole entry): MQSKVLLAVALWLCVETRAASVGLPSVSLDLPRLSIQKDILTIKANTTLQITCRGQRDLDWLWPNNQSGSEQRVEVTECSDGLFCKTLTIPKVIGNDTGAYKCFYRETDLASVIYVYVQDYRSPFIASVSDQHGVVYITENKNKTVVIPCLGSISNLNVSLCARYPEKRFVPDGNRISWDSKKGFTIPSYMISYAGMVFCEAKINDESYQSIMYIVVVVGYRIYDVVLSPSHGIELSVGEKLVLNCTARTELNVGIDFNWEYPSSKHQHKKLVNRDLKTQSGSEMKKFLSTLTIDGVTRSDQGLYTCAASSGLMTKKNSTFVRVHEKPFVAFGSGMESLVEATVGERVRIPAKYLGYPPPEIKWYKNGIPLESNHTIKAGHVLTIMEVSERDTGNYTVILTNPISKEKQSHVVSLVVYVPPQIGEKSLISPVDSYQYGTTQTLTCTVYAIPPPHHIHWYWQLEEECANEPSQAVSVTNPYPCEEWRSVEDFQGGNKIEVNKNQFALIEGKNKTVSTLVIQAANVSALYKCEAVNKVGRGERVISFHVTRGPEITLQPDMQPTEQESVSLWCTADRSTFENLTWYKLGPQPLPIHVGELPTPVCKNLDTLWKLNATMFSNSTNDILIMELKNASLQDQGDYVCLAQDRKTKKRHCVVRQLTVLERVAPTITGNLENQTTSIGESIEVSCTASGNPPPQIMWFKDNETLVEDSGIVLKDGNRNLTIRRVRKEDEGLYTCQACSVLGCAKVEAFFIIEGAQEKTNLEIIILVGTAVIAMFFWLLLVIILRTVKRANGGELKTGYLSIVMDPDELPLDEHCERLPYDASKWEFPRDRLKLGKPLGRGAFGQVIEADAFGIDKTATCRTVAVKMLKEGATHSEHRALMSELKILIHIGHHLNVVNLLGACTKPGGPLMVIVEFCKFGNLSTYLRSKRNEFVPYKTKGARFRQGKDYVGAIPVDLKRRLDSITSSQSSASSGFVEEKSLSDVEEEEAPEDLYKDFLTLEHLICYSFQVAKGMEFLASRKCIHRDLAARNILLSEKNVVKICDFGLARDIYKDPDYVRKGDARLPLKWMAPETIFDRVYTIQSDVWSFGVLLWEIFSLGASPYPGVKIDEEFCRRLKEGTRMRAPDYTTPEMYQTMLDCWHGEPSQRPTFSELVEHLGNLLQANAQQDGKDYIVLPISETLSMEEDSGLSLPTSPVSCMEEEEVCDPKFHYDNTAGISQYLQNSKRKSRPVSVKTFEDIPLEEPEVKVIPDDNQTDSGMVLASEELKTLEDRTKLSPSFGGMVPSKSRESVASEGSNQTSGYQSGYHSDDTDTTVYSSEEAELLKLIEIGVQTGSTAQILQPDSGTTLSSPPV
T2 sequence (Q96GD4 whole entry): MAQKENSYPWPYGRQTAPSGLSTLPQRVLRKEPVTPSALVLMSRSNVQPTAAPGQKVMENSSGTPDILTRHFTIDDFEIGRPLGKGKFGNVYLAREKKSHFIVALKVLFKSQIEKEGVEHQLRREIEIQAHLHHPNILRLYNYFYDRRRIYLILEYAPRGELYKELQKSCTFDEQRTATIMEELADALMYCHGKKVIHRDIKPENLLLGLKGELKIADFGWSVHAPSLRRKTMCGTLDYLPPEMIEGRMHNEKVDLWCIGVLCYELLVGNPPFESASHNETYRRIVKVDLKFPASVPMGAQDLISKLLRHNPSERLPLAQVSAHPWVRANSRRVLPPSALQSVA
Tyrosine-protein kinase Lck, sequence (P06239 whole entry): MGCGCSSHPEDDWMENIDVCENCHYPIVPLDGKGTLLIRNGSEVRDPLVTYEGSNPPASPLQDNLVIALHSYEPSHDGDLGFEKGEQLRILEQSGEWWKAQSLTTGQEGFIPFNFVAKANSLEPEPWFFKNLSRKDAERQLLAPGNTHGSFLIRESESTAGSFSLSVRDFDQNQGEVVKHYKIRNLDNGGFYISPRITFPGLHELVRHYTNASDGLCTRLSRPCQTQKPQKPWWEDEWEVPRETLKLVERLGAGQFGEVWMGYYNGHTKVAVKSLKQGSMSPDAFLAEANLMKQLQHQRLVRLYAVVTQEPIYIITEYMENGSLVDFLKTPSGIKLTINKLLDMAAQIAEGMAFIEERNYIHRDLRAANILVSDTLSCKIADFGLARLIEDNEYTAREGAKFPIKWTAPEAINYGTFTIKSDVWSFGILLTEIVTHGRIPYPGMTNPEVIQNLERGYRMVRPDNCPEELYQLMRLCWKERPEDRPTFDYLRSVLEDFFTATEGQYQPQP

Row | SMILES | IC50 (Aurora kinase A) [nM] | IC50 (Aurora kinase B [1]) [nM] | EC50 (Aurora kinase B [2]) [nM] | IC50 [3] [nM] | IC50 [4] [nM] | IC50 [5] [nM] | IC50 [6] [nM] | IC50 [7] [nM]
1 | COc1ccc(CNC(=O)Cn2cc(-c3cnc4c(Nc5cc(CN6CCCC(C)C6)ns5)nc(C)cn34)cn2)cc1 (stereo unspecified) | 1930 | 161 |  |  |  |  |  | 
2 | Cc1cn2c(-c3cnn(CC(=O)Nc4cc(F)cc(F)c4)c3)cnc2c(Nc2cc(CN3CCCCC3)ns2)n1 | 1220 | 94 | 2380 |  |  |  |  | 
3 | Cc1cn2c(-c3cnn(CC(=O)Nc4cccnn4)c3)cnc2c(Nc2cc(CN3CCCC(C)C3)ns2)n1 (stereo unspecified) | 638 | 45 | 951 |  |  |  |  | 
4 | Cc1cn2c(-c3cnn(CC(=O)Nc4cccc(F)c4F)c3)cnc2c(Nc2cc(CN3CCCCC3)ns2)n1 | 122 | ≤ 13 | 58 | > 3000 | 20 | 1420 | 481 | 4300
5 | Cc1cn2c(-c3cnn(Cc4nc5ccccc5[nH]4)c3)cnc2c(Nc2cc(CN3CCCC(C)C3)ns2)n1 (stereo unspecified) | 18 | ≤ 13 | 534 |  |  |  |  | 
6 | Cc1cn2c(-c3cn[nH]c3)cnc2c(Nc2cc(CN3CCCCC3)ns2)n1 | ≤ 4 | ≤ 13 | 50 | 12 | 20 | 56 | 4 | 360
7 | Cc1cn2c(-c3cnn(CC(=O)Nc4cc[n+]([O-])cc4)c3)cnc2c(Nc2cc(CN3CCCC(C)C3)ns2)n1 (stereo unspecified) | 68 | 91 | 402 |  |  |  |  | 
8 | Cc1cn2c(-c3cnn(CC(=O)Nc4cccnc4)c3)cnc2c(Nc2cc(CN3CCCC(C)C3)ns2)n1 (stereo unspecified) | 186 | 118 |  |  |  |  |  | 
9 | CNC(=O)Cn1cc(-c2cnc3c(Nc4cc(CN5CCCCC5)ns4)nc(C)cn23)cn1 | > 3000 | 193 |  |  |  |  |  | 
10 | Cc1cn2c(-c3cnn(CC(=O)Nc4ccncc4F)c3)cnc2c(Nc2cc(CN3CCCC(C)C3)ns2)n1 (stereo unspecified) | < 4 | ≤ 13 | 62 | 271 | 300 | 1220 | 253 | 6800
11 | Cc1cn2c(-c3cnn(Cc4nc(-c5ccccc5)no4)c3)cnc2c(Nc2cc(CN3CCCCC3)ns2)n1 | ≤ 4 | ≤ 13 | > 1000 |  |  |  |  | 
12 | Cc1cn2c(-c3cnn(CC(=O)N4CCOCC4)c3)cnc2c(Nc2cc(CN3CCCCC3)ns2)n1 | > 3000 | > 3000 |  |  |  |  |  | 
13 | Cc1cn2c(-c3cnn(CC(=O)NCCN(C)C)c3)cnc2c(Nc2cc(CN3CCCC(C)C3)ns2)n1 (stereo unspecified) | > 3000 | 761 |  |  |  |  |  | 
14 | Cc1cn2c(-c3cnn(CC(=O)NCc4ccccc4)c3)cnc2c(Nc2cc(CN3CCCC(C)C3)ns2)n1 (stereo unspecified) | 21 | ≤ 13 | 129 |  |  |  |  | 
15 | Cc1cn2c(-c3cnn(CC(=O)Nc4ccncc4O)c3)cnc2c(Nc2cc(CN3CCCC(C)C3)ns2)n1 (stereo unspecified) | 239 | 282 |  |  |  |  |  | 
16 | Cc1cn2c(-c3cnn(CC(=O)NCc4ccco4)c3)cnc2c(Nc2cc(CN3CCCC(C)C3)ns2)n1 (stereo unspecified) | 213 | 70 |  |  |  |  |  | 
17 | Cc1cn2c(-c3cnn(CC(=O)NCCC(C)C)c3)cnc2c(Nc2cc(CN3CCCCC3)ns2)n1 | 1800 | 44 | > 1000 |  |  |  |  | 
18 | Cc1cn2c(-c3cnn(CC(=O)NCc4cccc(F)c4F)c3)cnc2c(Nc2cc(CN3CCCCC3)ns2)n1 | 45 | ≤ 13 | 870 |  |  |  |  | 
19 | Cc1cn2c(-c3cnn(CC(=O)Nc4ccccc4)c3)cnc2c(Nc2cc(CN3CCCC(C)C3)ns2)n1 (stereo unspecified) | 34 | 51 | 327 |  |  |  |  | 
20 | Cc1cn2c(-c3cnn(CC(=O)NCc4cccc(N(C)C)c4)c3)cnc2c(Nc2cc(CN3CCCC(C)C3)ns2)n1 (stereo unspecified) | 859 | 155 |  |  |  |  |  | 
21 | Cc1cn2c(-c3cnn(CC(=O)NCc4ccncc4)c3)cnc2c(Nc2cc(CN3CCCC(C)C3)ns2)n1 (stereo unspecified) | 2450 | 1110 |  |  |  |  |  | 
22 | Cc1cn2c(-c3cnn(CC(=O)NCc4ncco4)c3)cnc2c(Nc2cc(CN3CCCC(C)C3)ns2)n1 (stereo unspecified) | 168 | 178 |  |  |  |  |  | 

Row | SMILES | IC50 (Aurora kinase A) [nM] | IC50 (Aurora kinase B [1]) [nM] | EC50 (Aurora kinase B [2]) [nM] | IC50 [3] [nM] | IC50 [4] [nM] | IC50 [5] [nM] | IC50 [6] [nM] | IC50 [7] [nM]
23 | Cc1cn2c(-c3cnn(CC(=O)Nc4ccc(F)cc4)c3)cnc2c(Nc2cc(CN3CCCCC3)ns2)n1 | 53 | 30 | 412 |  |  |  |  | 
24 | Cc1cn2c(-c3cnn(CC(=O)Nc4cccc(F)c4)c3)cnc2c(Nc2cc(CN3CCCCC3)ns2)n1 | 340 | ≤ 13 | 892 |  |  |  |  | 
25 | Cc1cn2c(-c3cnn(CC(=O)NCc4cccc(F)c4)c3)cnc2c(Nc2cc(CN3CCCCC3)ns2)n1 | 30 | ≤ 13 | 234 |  |  |  |  | 
26 | Cc1cn2c(-c3cnn(CC(=O)Nc4cccnc4F)c3)cnc2c(Nc2cc(CN3CCCC(C)C3)ns2)n1 (stereo unspecified) | 753 | 81 | 110 |  |  |  |  | 
27 | Cc1cn2c(-c3cnn(Cc4noc(-c5ccccc5)n4)c3)cnc2c(Nc2cc(CN3CCCCC3)ns2)n1 | ≤ 4 | ≤ 13 | > 1000 |  |  |  |  | 
28 | Cc1cn2c(-c3cnn(CC(=O)NCc4ccccc4F)c3)cnc2c(Nc2cc(CN3CCCCC3)ns2)n1 | 44 | ≤ 13 | 469 |  |  |  |  | 
29 | Cc1cn2c(-c3cnn(CC(=O)NCc4cccc(C(F)(F)F)c4)c3)cnc2c(Nc2cc(CN3CCCC(C)C3)ns2)n1 (stereo unspecified) | 413 | 35 | > 1000 |  |  |  |  | 
30 | Cc1cn2c(-c3cnn(CC(=O)Nc4ccccc4F)c3)cnc2c(Nc2cc(CN3CCCCC3)ns2)n1 | 198 | 35 | 388 |  |  |  |  | 
31 | Cc1cn2c(-c3cnn(CC(N)=O)c3)cnc2c(Nc2cc(CN3CCCCC3)ns2)n1 | 1570 | 28 | > 1000 |  |  |  |  | 
32 | Cc1cn2c(-c3cnn(CC(=O)NCc4ccc(C(F)(F)F)cc4)c3)cnc2c(Nc2cc(CN3CCCC(C)C3)ns2)n1 (stereo unspecified) | > 3000 | 175 |  |  |  |  |  | 
33 | Cc1cn2c(-c3cnn(CC(=O)O)c3)cnc2c(Nc2cc(CN3CCCC(C)C3)ns2)n1 (stereo unspecified) | 836 | 146 |  |  |  |  |  | 
34 | Cc1cn2c(-c3cnn(Cc4nc(-c5ccccc5)c[nH]4)c3)cnc2c(Nc2cc(CN3CCCCC3)ns2)n1 | 583 | 21 | 887 |  |  |  |  | 
35 | COc1cccc(CNC(=O)Cn2cc(-c3cnc4c(Nc5cc(CN6CCCC(C)C6)ns5)nc(C)cn34)cn2)c1 (stereo unspecified) | 57 | 41 | 442 |  |  |  |  | 
36 | Cc1cn2c(-c3cnn(CC(=O)N(C)Cc4ccccc4)c3)cnc2c(Nc2cc(CN3CCCC(C)C3)ns2)n1 (stereo unspecified) | 1630 | 261 |  |  |  |  |  | 
37 | Cc1cn2c(-c3cnn(CC(=O)N(C)C)c3)cnc2c(Nc2cc(CN3CCCCC3)ns2)n1 | > 3000 | > 3000 |  |  |  |  |  | 
38 | Cc1cn2c(-c3cnn(CC(=O)Nc4cccc(F)n4)c3)cnc2c(Nc2cc(CN3CCCC(C)C3)ns2)n1 (stereo unspecified) | 102 | 28 | 164 |  |  |  |  | 
39 | Cc1cn2c(-c3cnn(CC(=O)Nc4nccs4)c3)cnc2c(Nc2cc(CN3CCCC(C)C3)ns2)n1 (stereo unspecified) | 100 | ≤ 13 | > 1000 |  |  |  |  | 
40 | Cc1cn2c(-c3cnn(CC(=O)O)c3)cnc2c(Nc2cc(CN3CCCCC3)ns2)n1 | 1830 | 363 |  |  |  |  |  | 
41 | Cc1cn2c(-c3cnn(CC(=O)NCc4cccnc4)c3)cnc2c(Nc2cc(CN3CCCC(C)C3)ns2)n1 (stereo unspecified) | 434 | 439 |  |  |  |  |  | 
42 | Cc1cn2c(-c3cnn(CC(=O)NCc4ccc(F)cc4)c3)cnc2c(Nc2cc(CN3CCCCC3)ns2)n1 | 40 | ≤ 13 | 416 |  |  |  |  | 
43 | Cc1cn2c(-c3cnn(CC(=O)Nc4ccccn4)c3)cnc2c(Nc2cc(CN3CCCC(C)C3)ns2)n1 (stereo unspecified) | 185 | 32 | 285 |  |  |  |  | 
44 | Cc1cn2c(-c3cnn(CC(=O)NCc4cc(F)cc(F)c4)c3)cnc2c(Nc2cc(CN3CCCCC3)ns2)n1 | 22 | ≤ 13 | 389 |  |  |  |  | 
